In patent US8952024B2, “Herbicidal pyrimidone derivatives” (E I du Pont de Nemours and Company, priority 2009, dated 2015):

How the values were obtained:
Type in all cases: in vivo
[1] = tested on: nutsedge (purple nutsedge, Cyperus rotundus); assay: Test D pre-/postemergence plant response
Summary of the method: (§1)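 Each species was planted in mixed loam and sand, treated either before emergence or at the 1- to 4-leaf stage, then kept under glass for 14 to 21 days. Plant response was scored by eye from 0 to 100 relative to controls; a dash marks no result.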

[2] = tested on: dayflower (Virginia (VA) dayflower, Commelina virginica); assay: Test D pre-/postemergence plant response
Summary of the method: as §1

[3] = tested on: black mustard (Brassica nigra); assay: Test D pre-/postemergence plant response
Summary of the method: as §1

[4] = tested on: purslane (common purslane, Portulaca oleracea); assay: Test D pre-/postemergence plant response
Summary of the method: as §1

[5] = tested on: field bindweed (Convolvulus arvensis); assay: Test D pre-/postemergence plant response
Summary of the method: as §1

[6] = tested on: groundsel (common groundsel, Senecio vulgaris); assay: Test D pre-/postemergence plant response; conditions: Postemergence
Summary of the method: as §1

[7] = tested on: sowthistle (common sowthistle, Sonchus oleraceous); assay: Test D pre-/postemergence plant response
Summary of the method: as §1

[8] = tested on: itchgrass (Rottboellia cochinchinensis); assay: Test D pre-/postemergence plant response
Summary of the method: as §1

[9] = tested on: prickly sida (Sida spinosa); assay: Test D pre-/postemergence plant response
Summary of the method: as §1

[10] = tested on: Italian ryegrass (Lolium multiflorum); assay: Test D pre-/postemergence plant response
Summary of the method: as §1

[11] = tested on: Russian thistle (Salsola kali); assay: Test B pre-/postemergence plant response; conditions: Preemergence; for Russian Thistle plant response rating: 250 g ai/ha, 0 to 100 scale
Summary of the method: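 Seeds sown in loam–sand blend were treated preemergence, and plants at 2–18 cm (1- to 4-leaf stage) in peat-based medium were treated postemergence; compounds were formulated in non-phytotoxic solvent with surfactant. After 13–15 days in greenhouse, response was visually rated against controls, 0 (no effect) to 100 (complete control).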

[12] = Postemergence, 16 g ai/ha, scale 0 to 100
[13] = Postemergence, 31 g ai/ha, scale 0 to 100
[14] = Postemergence, 125 g ai/ha, scale 0 to 100 (0 no effect, 100 complete control)
[15] = Postemergence, 62 g ai/ha, scale 0 to 100 (0 no effect, 100 complete control)
[16] = Preemergence, 16 g ai/ha, scale 0 to 100, 0 no effect, 100 complete control
[17] = Preemergence, 31 g ai/ha, scale 0 to 100 (0 no effect, 100 complete control)
[18] = Preemergence, 62 g ai/ha, scale 0 to 100
[19] = Preemergence, 125 g ai/ha, scale 0 to 100
[20] = 62 g ai/ha, scale 0 to 100, 0 no effect, 100 complete control
[21] = 31 g ai/ha, scale 0 to 100 (0 no effect, 100 complete control)
[22] = 125 g ai/ha, scale 0 to 100, 0 no effect, 100 complete control

O=C1CCCC(O)=C1C(=O)c1cnc(-c2cccs2)n(-c2ccccc2)c1=O [Compound 66]
Plant response rating, Nutsedge, Purple [1, 12]: 0
Plant response rating, Nutsedge, Purple [1, 13]: 5
Plant response rating, Nutsedge, Purple [1, 14]: 30
Plant response rating, Nutsedge, Purple [1, 15]: 20
Plant response rating, Nutsedge, Purple [1, 16]: 0
Plant response rating, Nutsedge, Purple [1, 17]: 0
Plant response rating, Nutsedge, Purple [1, 18]: 35
Plant response rating, Nutsedge, Purple [1, 19]: 70
Plant response rating, Dayflower, VA [2, 12]: 0
Plant response rating, Dayflower, VA [2, 13]: 0
Plant response rating, Dayflower, VA [2, 14]: 30
Plant response rating, Dayflower, VA [2, 15]: 0
Plant response rating, Dayflower, VA [2, 16]: 0
Plant response rating, Dayflower, VA [2, 17]: 0
Plant response rating, Dayflower, VA [2, 18]: 0
Plant response rating, Dayflower, VA [2, 19]: 5
Plant response rating, Black Mustard [3, 12]: 0
Plant response rating, Black Mustard ([3]; Postemergence, 31 g ai/ha, scale 0 to 100 (0 no effect, 100 complete control)): 20
Plant response rating, Black Mustard [3, 14]: 98
Plant response rating, Black Mustard [3, 15]: 50
Plant response rating, Black Mustard [3, 16]: 0
Plant response rating, Black Mustard [3, 17]: 5
Plant response rating, Black Mustard [3, 18]: 35
Plant response rating, Black Mustard [3, 19]: 80
Plant response rating, Purslane [4, 13]: 50
Plant response rating, Purslane [4, 14]: 75
Plant response rating, Purslane [4, 15]: 75
Plant response rating, Purslane [4, 16]: 0
Plant response rating, Purslane [4, 17]: 0
Plant response rating, Purslane [4, 18]: 60
Plant response rating, Purslane [4, 19]: 100
Plant response rating, Field Bindweed [5, 12]: 0
Plant response rating, Field Bindweed [5, 13]: 0
Plant response rating, Field Bindweed [5, 14]: 0
Plant response rating, Field Bindweed [5, 15]: 0
Plant response rating, Field Bindweed [5, 16]: 0
Plant response rating, Field Bindweed [5, 17]: 0
Plant response rating, Field Bindweed [5, 18]: 0
Plant response rating, Field Bindweed [5, 19]: 20
Plant response rating, Groundsel ([6]; 31 g ai/ha, scale 0 to 100): 60
Plant response rating, Groundsel ([6]; 125 g ai/ha, scale 0 to 100 (0 no effect, 100 complete control)): 80
Plant response rating, Groundsel ([6]; 62 g ai/ha, scale 0 to 100 (0 no effect, 100 complete control)): 80
Plant response rating, Sowthistle [7, 12]: 35
Plant response rating, Sowthistle [7, 13]: 65
Plant response rating, Sowthistle [7, 14]: 90
Plant response rating, Sowthistle [7, 15]: 70
Plant response rating, Sowthistle [7, 16]: 0
Plant response rating, Sowthistle [7, 17]: 0
Plant response rating, Sowthistle [7, 19]: 0
Plant response rating, Itchgrass [8, 12]: 10
Plant response rating, Itchgrass [8, 13]: 15
Plant response rating, Itchgrass [8, 14]: 40
Plant response rating, Itchgrass [8, 15]: 35
Plant response rating, Itchgrass [8, 16]: 0
Plant response rating, Itchgrass [8, 17]: 0
Plant response rating, Itchgrass [8, 18]: 0
Plant response rating, Itchgrass [8, 19]: 0
Plant response rating, Prickly Sida [9, 13]: 98
Plant response rating, Prickly Sida [9, 14]: 98
Plant response rating, Prickly Sida [9, 15]: 98
Plant response rating, Prickly Sida [9, 16]: 0
Plant response rating, Prickly Sida [9, 17]: 0
Plant response rating, Prickly Sida [9, 18]: 5
Plant response rating, Prickly Sida [9, 19]: 90
Plant response rating, Ryegrass, Italian [10, 12]: 0
Plant response rating, Ryegrass, Italian [10, 13]: 0
Plant response rating, Ryegrass, Italian [10, 14]: 15
Plant response rating, Ryegrass, Italian [10, 15]: 0
Plant response rating, Ryegrass, Italian [10, 16]: 0
Plant response rating, Ryegrass, Italian [10, 17]: 0
Plant response rating, Ryegrass, Italian [10, 19]: 0
Plant response rating, Russian Thistle [11, 20]: 0

COCCCn1c(-c2ccccc2)ncc(C(=O)C2=C(O)CCCC2=O)c1=O [Compound 81, 5-[(2-hydroxy-6-oxo-cyclohexen-1-yl)carbonyl]-3-(3-methoxypropyl)-2-phenyl-4(3H)-pyrimidinone]
Plant response rating, Russian Thistle [11, 21]: 100
Plant response rating, Russian Thistle [11, 20]: 100
Plant response rating, Russian Thistle [11, 22]: 100
Russian Thistle plant response rating [11]: 100

CCCCn1c(C2CC2)ncc(C(=O)C2=C(O)CCCC2=O)c1=O [Compound 193]
Plant response rating, Russian Thistle [11, 21]: 90
Plant response rating, Russian Thistle [11, 20]: 98
Plant response rating, Russian Thistle [11, 22]: 100
Russian Thistle plant response rating [11]: 100
